Results: ChEMBL document CHEMBL1201862, “PubChem BioAssay data set” (2004)
Calls of active or inactive are those of the source.

Experiments:
[1] = molecular target: T1, Calpain-2 catalytic subunit (Sus scrofa, UniProt P43367); experiment: pig calpain II inhibitor potency, dose response, biochemical, fluorogenic peptide substrate (AID 1420); type: functional
T1 sequence (P43367 whole entry): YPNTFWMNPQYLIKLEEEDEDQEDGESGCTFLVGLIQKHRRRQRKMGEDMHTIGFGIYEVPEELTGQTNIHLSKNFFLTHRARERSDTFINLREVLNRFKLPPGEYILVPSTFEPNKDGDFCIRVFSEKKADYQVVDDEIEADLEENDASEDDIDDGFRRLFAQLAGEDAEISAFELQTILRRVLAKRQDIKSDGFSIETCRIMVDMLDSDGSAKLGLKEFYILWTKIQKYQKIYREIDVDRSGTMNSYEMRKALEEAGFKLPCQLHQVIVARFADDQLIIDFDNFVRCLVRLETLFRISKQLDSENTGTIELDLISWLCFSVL

[2] = molecular target: Induced myeloid leukemia cell differentiation protein Mcl-1 (Homo sapiens, UniProt Q07820); type: functional
Prothrombin = Prothrombin (Homo sapiens, UniProt P00734); experiment: Thrombin 1536 HTS Dose Response Confirmation. [Related pubchem assays: 1046 (Thrombin 1536 HTS; hits were confirmed in this assay)]; type: functional
Cytochrome P450 2C9 = Cytochrome P450 2C9 (Homo sapiens, UniProt P11712)
Caspase-6 = molecular target: T2, Caspase-6 (Homo sapiens, UniProt P55212); experiment: human caspase-6 inhibitors, dose response, biochemical, VEID-R110 fluorescence, cherry-pick (AID 720632)
T2 sequence (P55212 whole entry): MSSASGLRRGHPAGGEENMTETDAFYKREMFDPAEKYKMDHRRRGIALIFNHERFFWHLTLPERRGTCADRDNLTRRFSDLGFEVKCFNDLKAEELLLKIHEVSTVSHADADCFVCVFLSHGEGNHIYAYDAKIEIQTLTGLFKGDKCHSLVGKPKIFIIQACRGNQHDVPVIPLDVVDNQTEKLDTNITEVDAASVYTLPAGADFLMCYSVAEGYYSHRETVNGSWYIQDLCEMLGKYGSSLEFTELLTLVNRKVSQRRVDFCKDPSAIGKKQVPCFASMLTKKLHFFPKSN

[3] = growth suppression of beta-catenin-knockout colon cells, dose response, cell-based, HCT116, human colon tumor (AID 1045); type: functional;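 further: HCT116 colon tumor cells with beta catenin knocked out; cells exposed to compound for 60 hours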
Caspase-3 = molecular target: T3, Caspase-3 (Homo sapiens, UniProt P42574); type: functional;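 further: Dose-response selectivity test against caspase-3 for candidate inhibitors of sentrin-specific proteases (SENPs)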
T3 sequence (P42574 whole entry): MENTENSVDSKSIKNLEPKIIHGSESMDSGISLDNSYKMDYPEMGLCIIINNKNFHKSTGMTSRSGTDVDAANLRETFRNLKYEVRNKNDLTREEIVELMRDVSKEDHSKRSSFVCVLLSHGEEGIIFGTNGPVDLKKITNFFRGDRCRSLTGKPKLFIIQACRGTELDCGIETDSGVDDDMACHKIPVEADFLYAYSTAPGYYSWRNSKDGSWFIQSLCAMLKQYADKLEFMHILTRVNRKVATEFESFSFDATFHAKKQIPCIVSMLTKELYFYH

[4] = molecular target: T4, Sentrin-specific protease 7 (Homo sapiens, UniProt Q9BQF6); type: functional;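 further: Luminescence-based dose-response confirmation of ultra-high-throughput screening hits, measuring inhibition of SENP7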
T4 sequence (Q9BQF6 whole entry): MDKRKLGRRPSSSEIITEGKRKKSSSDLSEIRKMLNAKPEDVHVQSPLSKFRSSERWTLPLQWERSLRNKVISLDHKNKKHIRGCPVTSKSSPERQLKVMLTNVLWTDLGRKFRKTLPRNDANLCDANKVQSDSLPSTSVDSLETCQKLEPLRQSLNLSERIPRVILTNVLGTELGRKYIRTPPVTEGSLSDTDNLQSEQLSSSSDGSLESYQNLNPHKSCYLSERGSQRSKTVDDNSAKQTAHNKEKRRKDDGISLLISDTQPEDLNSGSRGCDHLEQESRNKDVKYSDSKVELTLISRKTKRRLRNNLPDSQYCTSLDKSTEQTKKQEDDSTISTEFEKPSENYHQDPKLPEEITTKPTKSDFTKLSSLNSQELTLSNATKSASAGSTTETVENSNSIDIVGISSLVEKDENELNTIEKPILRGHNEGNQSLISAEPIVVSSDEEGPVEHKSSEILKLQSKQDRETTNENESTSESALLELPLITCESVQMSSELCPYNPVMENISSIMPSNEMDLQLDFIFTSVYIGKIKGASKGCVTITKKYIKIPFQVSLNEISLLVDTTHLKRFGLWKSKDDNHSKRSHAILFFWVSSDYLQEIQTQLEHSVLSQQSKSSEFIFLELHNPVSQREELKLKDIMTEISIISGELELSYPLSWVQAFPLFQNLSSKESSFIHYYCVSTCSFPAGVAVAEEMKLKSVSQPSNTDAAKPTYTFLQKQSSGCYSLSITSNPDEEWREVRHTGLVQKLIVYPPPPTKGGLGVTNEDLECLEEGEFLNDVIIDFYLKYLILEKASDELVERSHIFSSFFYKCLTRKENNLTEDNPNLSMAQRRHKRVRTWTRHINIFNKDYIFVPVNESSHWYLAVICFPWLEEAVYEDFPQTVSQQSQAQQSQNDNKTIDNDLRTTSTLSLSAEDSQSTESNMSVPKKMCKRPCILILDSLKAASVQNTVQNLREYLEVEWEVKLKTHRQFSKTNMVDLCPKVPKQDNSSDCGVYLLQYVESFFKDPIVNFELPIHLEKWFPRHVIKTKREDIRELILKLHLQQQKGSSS

[5] = growth suppression of PTEN-null colon cells, dose response, cell-based, HCT116 PTEN knockout (AID 1047); type: functional;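 further: HCT116 colon tumor cells with PTEN knocked out; cells exposed to compound for 60 hours before readout; potency for loss of cell viability measured by luminescence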
[6] = molecular target: T5, Sentrin-specific protease 6 (Homo sapiens, UniProt Q9GZR1); type: functional;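 further: Luminescence-based dose-response confirmatory assay of SENP6 inhibition, following up an ultra-high-throughput screen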
T5 sequence (Q9GZR1 whole entry): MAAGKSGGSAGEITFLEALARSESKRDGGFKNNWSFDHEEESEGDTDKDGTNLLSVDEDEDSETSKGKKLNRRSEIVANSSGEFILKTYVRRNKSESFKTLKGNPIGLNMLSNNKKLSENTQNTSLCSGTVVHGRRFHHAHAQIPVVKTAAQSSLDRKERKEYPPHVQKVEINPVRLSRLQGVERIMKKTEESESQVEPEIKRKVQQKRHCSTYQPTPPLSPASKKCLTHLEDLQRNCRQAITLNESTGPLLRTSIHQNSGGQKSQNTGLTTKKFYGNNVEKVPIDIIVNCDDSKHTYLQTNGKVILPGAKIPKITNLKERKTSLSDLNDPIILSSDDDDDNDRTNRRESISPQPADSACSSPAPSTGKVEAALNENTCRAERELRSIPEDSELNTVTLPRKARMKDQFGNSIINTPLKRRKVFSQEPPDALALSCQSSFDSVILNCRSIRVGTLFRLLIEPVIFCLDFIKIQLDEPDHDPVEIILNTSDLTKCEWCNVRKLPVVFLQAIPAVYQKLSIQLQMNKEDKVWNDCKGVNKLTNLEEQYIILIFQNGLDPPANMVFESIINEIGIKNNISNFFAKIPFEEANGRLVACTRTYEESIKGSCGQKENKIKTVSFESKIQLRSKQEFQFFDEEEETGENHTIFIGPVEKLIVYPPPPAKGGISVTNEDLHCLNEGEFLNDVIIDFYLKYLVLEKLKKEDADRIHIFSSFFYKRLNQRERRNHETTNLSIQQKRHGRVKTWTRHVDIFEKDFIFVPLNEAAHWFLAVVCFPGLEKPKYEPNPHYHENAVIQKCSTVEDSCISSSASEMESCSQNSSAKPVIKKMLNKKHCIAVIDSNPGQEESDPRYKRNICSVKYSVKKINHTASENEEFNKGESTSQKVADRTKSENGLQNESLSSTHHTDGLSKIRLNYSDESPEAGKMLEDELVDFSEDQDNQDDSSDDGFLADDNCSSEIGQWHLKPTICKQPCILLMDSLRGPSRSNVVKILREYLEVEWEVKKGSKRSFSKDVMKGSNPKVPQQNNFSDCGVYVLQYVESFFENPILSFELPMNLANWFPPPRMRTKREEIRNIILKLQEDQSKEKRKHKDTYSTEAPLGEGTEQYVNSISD

[7] = molecular target: T6, Sentrin-specific protease 8 (Homo sapiens, UniProt Q96LD8); type: functional;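 further: luminescence read-out of SENP8 inhibition, dose-response confirmation following an ultra-high-throughput screen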
T6 sequence (Q96LD8 whole entry): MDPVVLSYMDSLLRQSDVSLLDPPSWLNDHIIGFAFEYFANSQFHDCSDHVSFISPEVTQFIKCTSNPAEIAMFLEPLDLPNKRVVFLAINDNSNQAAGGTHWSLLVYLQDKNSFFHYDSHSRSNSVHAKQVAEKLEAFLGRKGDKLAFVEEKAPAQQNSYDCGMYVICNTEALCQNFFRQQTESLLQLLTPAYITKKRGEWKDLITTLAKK

Large T antigen = Large T antigen (Simian virus 40, UniProt P03070); type: functional, Betapolyomavirus macacae;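 further: Confirmatory-stage PubChem screen for compounds that inhibit SV40 T antigen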
[8] = inhibitors of firefly luciferase expression or activity, dose response, H4 neuroglioma cells, luminescence (AID 1990); type: functional, cell-based
[9] = Luminescence Cell-Based Dose Response HTS to Identify Inhibitors of 5'UTR Stem-Loop Driven Prion Protein mRNA Translation in H4 Neuroglioblastoma Cells. [Related pubchem assays: 1827 (Project Summary), 1813 (Primary HTS)]; type: functional
[10] = inhibitors of SNCA 5'UTR-driven reporter translation, confirmation, H4 neuroglioma cells, luminescence (AID 1988); type: functional, cell-based
[11] = molecular target: FAD-linked sulfhydryl oxidase ALR (Homo sapiens, UniProt P55789); experiment: inhibitors of human ALR sulfhydryl oxidase, dose response, biochemical, H2O2 detection, luminescence, cherry-pick (AID 493248)
Chain of FAD-linked sulfhydryl oxidase ALR (P55789 whole entry): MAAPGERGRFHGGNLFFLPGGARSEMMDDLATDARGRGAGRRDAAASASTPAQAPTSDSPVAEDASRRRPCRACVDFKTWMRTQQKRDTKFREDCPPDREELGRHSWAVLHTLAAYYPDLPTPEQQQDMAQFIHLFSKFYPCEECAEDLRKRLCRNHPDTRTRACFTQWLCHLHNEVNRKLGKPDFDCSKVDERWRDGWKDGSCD

Chain of Induced myeloid leukemia cell differentiation protein Mcl-1 (Q07820 whole entry): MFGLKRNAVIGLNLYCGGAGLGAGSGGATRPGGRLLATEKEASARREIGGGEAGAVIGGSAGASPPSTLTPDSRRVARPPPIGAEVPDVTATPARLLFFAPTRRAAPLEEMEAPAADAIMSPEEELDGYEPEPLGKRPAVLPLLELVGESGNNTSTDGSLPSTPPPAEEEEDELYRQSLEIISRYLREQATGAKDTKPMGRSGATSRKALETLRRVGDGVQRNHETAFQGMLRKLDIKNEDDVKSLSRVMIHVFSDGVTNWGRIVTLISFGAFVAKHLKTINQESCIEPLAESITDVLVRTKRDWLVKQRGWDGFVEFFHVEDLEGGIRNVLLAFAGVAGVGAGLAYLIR
Chain of Large T antigen (P03070 whole entry): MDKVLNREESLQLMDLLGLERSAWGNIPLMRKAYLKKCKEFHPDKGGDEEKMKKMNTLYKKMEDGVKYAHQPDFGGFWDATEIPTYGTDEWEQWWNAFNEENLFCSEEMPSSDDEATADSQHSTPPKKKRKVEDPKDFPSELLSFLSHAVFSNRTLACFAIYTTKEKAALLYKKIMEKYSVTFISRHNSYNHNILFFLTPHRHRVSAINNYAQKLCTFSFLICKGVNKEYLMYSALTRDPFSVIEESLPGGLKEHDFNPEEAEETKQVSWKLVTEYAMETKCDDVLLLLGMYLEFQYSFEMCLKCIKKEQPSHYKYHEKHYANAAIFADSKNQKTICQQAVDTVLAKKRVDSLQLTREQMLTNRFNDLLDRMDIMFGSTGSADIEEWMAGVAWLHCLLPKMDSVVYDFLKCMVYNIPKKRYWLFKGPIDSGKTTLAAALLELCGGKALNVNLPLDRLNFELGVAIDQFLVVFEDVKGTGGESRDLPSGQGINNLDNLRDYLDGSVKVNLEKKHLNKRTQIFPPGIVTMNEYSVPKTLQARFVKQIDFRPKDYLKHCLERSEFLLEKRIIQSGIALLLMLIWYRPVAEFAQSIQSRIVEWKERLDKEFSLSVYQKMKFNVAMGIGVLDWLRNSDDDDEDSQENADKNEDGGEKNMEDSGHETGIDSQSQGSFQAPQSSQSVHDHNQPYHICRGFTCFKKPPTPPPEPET
Chain of Cytochrome P450 2C9 (P11712 whole entry): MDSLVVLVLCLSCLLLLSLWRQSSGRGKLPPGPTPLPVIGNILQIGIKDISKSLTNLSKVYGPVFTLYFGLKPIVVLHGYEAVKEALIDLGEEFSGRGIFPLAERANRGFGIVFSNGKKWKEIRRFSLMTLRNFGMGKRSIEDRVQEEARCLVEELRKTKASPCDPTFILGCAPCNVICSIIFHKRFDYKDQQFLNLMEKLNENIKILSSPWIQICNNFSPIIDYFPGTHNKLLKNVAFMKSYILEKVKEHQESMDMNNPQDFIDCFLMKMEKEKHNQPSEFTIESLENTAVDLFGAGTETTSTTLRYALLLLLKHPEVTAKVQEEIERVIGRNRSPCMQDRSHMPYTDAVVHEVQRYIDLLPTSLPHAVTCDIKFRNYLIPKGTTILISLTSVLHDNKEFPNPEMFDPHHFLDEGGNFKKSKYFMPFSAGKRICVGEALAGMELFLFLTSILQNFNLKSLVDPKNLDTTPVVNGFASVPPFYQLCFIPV

Question: Which IC50 [1] does the source give for `Cn1c(N)c(C(=O)COC(=O)C2CCC(C(C)(C)C)CC2)c(=O)n(C)c1=O` (stereo not drawn) here?
Answer: The IC50 was 10.4 µM (active).

Question: For `CCc1nn2c(=O)cc(COc3ccc(/C=C4\C(=N)N5N=C(C)SC5=NC4=O)cc3)nc2s1`, which IC50 [2] is on record?
Answer: The IC50 was 4.66 µM (active).

Question: For `COc1cccc(NC(=S)N(CCCN2CCCC2)Cc2ccco2)c1`, which IC50 (Prothrombin) is on record?
Answer: The IC50 was > 50 µM (inconclusive).

Question: Which AC50 (Cytochrome P450 2C9) does the source give for `COc1ccc(C(=O)n2nc(-c3ccccc3)nc2SC)cc1` here?
Answer: Its AC50 is 0.141 µM (inconclusive).

Question: And the IC50 (Prothrombin)?
Answer: The IC50 was 0.913 µM (active).

Question: For `O=C(O)c1ccc(N=Nc2c(O)[nH]c3cc(Cl)ccc23)cc1`, which AC50 (Caspase-6) is on record?
Answer: Its AC50 is 49.4 µM (active).

Question: For `COCC(=O)n1nc(-c2ccc(C)cc2)nc1NCc1ccc(F)cc1`, which IC50 (Prothrombin) is on record?
Answer: Its IC50 is 0.502 µM (active).

Question: For `Oc1[nH]c2ccccc2c1N=Nc1nc2ccccc2s1`, which EC50 [3] is on record?
Answer: Its EC50 is 32.3 µM (active).

Question: And the IC50 (Caspase-3)?
Answer: The IC50 was 27.6 µM (active).

Question: And the IC50 [4]?
Answer: Its IC50 is 4.3 µM (active).

Question: And the EC50 [5]?
Answer: Its EC50 is 26.5 µM (active).

Question: And the IC50 [6]?
Answer: The IC50 was 66.4 µM (active).

Question: And the IC50 [7]?
Answer: Its IC50 is > 100 µM (inactive).

Question: And the IC50 [2]?
Answer: Its IC50 is 3.84 µM (active).

Question: With `CC(=O)n1nc(-c2ccc(C)cc2)nc1NCc1ccc(F)cc1` as the compound, how does the IC50 (Prothrombin) read?
Answer: Its IC50 is 0.373 µM (active).

Question: With `CC(C)C(=O)n1nc(-c2cccnc2)nc1NCc1cccs1` as the compound, how does the IC50 (Prothrombin) read?
Answer: The IC50 was 0.006 µM (active).

Question: Which IC50 [1] does the source give for `COc1cc(-n2c(=O)c3ccccc3n(Cc3cccc(C)c3)c2=O)cc(OC)c1OC` here?
Answer: Its IC50 is 19.3 µM (active).

Question: What does the source list for `Nc1ccc(OC(=O)Nc2ccc(O)cc2)cc1`?
Answer: IC50 (Large T antigen): 6.52 µM (active); AC50 (Caspase-6): 18.7 µM (active); EC50 [8]: 11.2 µM (active); EC50 [9]: 11.7 µM (active); EC50 [10]: 9.76 µM (active); AC50 [11]: 1.38 µM (active)
